{
  "source": "patent US20100112102A1",
  "about": "“THERAPEUTIC COMPOSITIONS FOR THE TREATMENT OF BENIGH PROSTATE HYPERPLASIA, PROSTATITIS, IMPOTENCE, INFERTILITY AND PROSTATE CANCER AND A METHOD FOR THE USE THEREOF” (priority 2007, published 2010)",
  "origin": "cited, not measured here",
  "test_system": "5α-reductase",
  "conditions": "one group of patients",
  "data": [
    {"smiles": "CC(C)(C)NC(=O)[C@H]1CC[C@H]2[C@@H]3CC[C@H]4NC(=O)C=C[C@]4(C)[C@H]3CC[C@]12C", "note": "[Finasteride]", "values": [
      {"measurement": "J-PSS parameters, decrease on average", "result": 20, "unit": "%"},
      {"measurement": "maximal rate of urination, increase", "result": 32.5, "unit": "%"},
      {"measurement": "prostate size, decrease on average", "result": 32, "unit": "%"}
    ]}
  ]
}
